Converted amounts (≈) assume the structure as drawn.
Columns and labels:
LasB = LasB (Pseudomonas aeruginosa (strain ATCC 15692 / DSM 22644 / CIP 104116 / JCM 14847 / LMG 12228 / 1C / PRS 101 / PAO1), UniProt P14756); test: In vitro LasB activity assay (fluorogenic substrate); assay type: biochemical; settings: LasB 0.3 nM, substrate 150 μM, mean ± SD
Protocol: The LasB activity assay was performed as described previously (Nishino N, Powers J C. Pseudomonas aeruginosa elastase. Development of a new substrate, inhibitors, and an affinity ligand. J Biol Chem. 1980 Apr. 25; 255(8):3482-6) using the fluorogenic substrate 2-Aminobenzoyl-L-Alanyl-Glycyl-L-Leucyl-L-Alanyl-para-Nitro-Benzyl-Amide, purchased from Peptides International (Louisville, KY, USA) and vivitide, LLC (Gardner, MA, USA).
Fluorescence intensity was measured for 60 min at 37° C. in black 384-well microtiter plates (Greiner BioOne, Kremsmünster, Austria) using a CLARIOstar microplate reader (BMG Labtech, Ortenberg, Germany) with an excitation wavelength of […] and an emission wavelength of 415±20 nm. The assay was performed in a final volume of 50 μL of assay buffer (50 mM Tris, pH 7.2, 2.5 mM CaCl2), 0.075% Pluronic F-127, 5% DMSO) containing LasB at a final concentration of […] 0.3 nM and the substrate at 150 μM. Before substrate addition, compounds were preincubated with the enzyme at 37° C. for 15 min. Experiments were performed in duplicates and repeated for at least two times. Blank controls without enzyme were performed. After blank subtraction, the slope of samples containing inhibitors (v) was divided by the slope of a simultaneously started uninhibited enzymatic reaction (v0). IC50 values were determined with nonlinear regression using GraphPad Prism 5 (Graph Pad Software, San Diego, CA, USA) and are given as mean values ±standard deviation (SD). The slope factor was constrained to 1.

[1] = Kinetic turbidimetric solubility assay; assay type: physicochemical; settings: PBS, aqueous buffer, kinetic from dmso stock
Protocol: The desired compounds were sequentially diluted in DMSO in a 96-well plate. 1.5 μL of each well were transferred into another 96-well plate and mixed with 148.5 μL of PBS. Plates were shaken for 5 min at 600 rpm at room temperature, and the absorbance at 620 nm was measured. Absorbance values were normalized by blank subtraction and plotted using GraphPad Prism 8.4.2 (GraphPad Software, San Diego, CA, USA). Solubility (S) was determined based on the First X value of AUC function using a threshold of 0.005.

in vitro = in vitro ADME; settings: mouse, s9
Protocol: For the evaluation of combined phase I and phase II metabolic stability, the compound (1 μM) was incubated with 1 mg/mL pooled liver S9 fraction (Xenotech), 2 mM NADPH, 1 mM UDPGA, 10 mM MgCl2, 5 mM GSH and 0.1 mM PAPS at 37° C. for 0, 5, 15, 30 and 60 min. The metabolic stability of Testosterone (1 μM), verapamil (1 μM) and ketoconazol (1 μM) were determined in parallel to confirm the enzymatic activity of the S9 fraction. The incubation was stopped by precipitation of S9 enzymes with 2 volumes of cold acetonitrile containing internal standard (150 nM Diphenhydramine). Samples were stored on ice for 10 min and precipitated protein was removed by centrifugation (15 min, 4° C., 4,000 rpm). The remaining test compound at different time points was analyzed by LC-MS/MS (TSQ Quantum Access MAX, Thermo Fisher, Dreieich, Germany) and used to determine half-life (t½).

[2] = tested on: P. aeruginosa PAO1 (strain DSM22644); test: G. mellonella larvae survival after PAO1 infection; assay type: in vivo; settings: for Final survival percentage of larvae: 3 CFU/Larva, 24 h
Protocol: Bacteria were grown overnight, diluted to OD600 of 0.025 in 10 ml medium, and grown for approx. 2 hours at 37° C. inside a shaker incubator until the OD600 of 1.8-2 is reached. The culture was then serially diluted in sterile PBS (pH=7.2). Bacterial densities of 3000, 300, 30, and 3 CFU/Larva were selected for injection into groups of 15 larvae. A total volume of 5 μl was injected into each larva via the hindmost left proleg by using a syringe pump and Sterican® needles (0.30×12 mm, 30G×½). In addition, control group without injection for the quality of the larvae and a PBS control to monitor the effect of the injection were included in the experiment. All test groups and control groups were incubated at 37° C. in the dark and monitored every 2 hours from 17 hours post-infection.
In vivo evaluation of compounds 162 and 169. Bacteria were cultured and prepared according to the previous section. Final concentrations of 50 μM, 25 μM, and 12.5 μM in combination with 3 CFU/Larva were injected into groups of 15 larvae. In addition to no injection and PBS controls, one group was infected with 3 CFU/Larva and considered the negative control. All test groups and control groups were incubated at 37° C. in the dark and monitored every 2 hours from 17 hours post-infection.

Sequence of LasB (P14756 198-498): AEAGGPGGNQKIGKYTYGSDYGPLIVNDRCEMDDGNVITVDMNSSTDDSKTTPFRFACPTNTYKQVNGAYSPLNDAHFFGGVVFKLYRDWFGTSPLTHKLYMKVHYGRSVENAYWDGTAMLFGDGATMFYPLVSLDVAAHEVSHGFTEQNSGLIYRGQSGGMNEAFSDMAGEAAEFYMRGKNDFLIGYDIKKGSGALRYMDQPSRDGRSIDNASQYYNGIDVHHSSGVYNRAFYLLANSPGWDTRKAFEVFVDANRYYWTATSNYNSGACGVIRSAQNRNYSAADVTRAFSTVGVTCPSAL

Row | SMILES | IC50 (LasB) [nM] | solubility at 5 min [1] [µM] | half-life at 1 μM (in vitro) [min] | also measured
1 | CC(C)CC(C(=O)NO)C(=O)Nc1ccc(Cn2cc(CN(C)S(=O)(=O)c3ccc(I)cc3)nn2)cc1 (stereo not drawn) [Compound 131, 2-(Hydroxycarbamoyl)-N-[4-[[4-[[(4-iodophenyl)sulfonyl-methyl-amino]methyl]triazol-1-yl]methyl]phenyl]-4-methyl-pentanamide] | 2.3 ± 0.1 | < 200 | 37.5 ± 2.5 | 
2 | CC(C)CC(C(=O)NO)C(=O)Nc1ccc(Cn2cc(CSc3ccc(Cl)cc3)nn2)cc1 (stereo not drawn) [Compound 136, N-[4-[[4-[(4-Chlorophenyl)sulfanylmethyl]triazol-1-yl]methyl]phenyl]-2-(hydroxycarbamoyl)-4-methyl-pentanamide] | 1.4 ± 0.1 | < 200 | 3.3 ± 0.2 | 
3 | COc1ccc(S(=O)(=O)NCc2cn(Cc3ccc(NC(=O)C(CC(C)C)C(=O)NO)cc3)nn2)cc1 (stereo not drawn) [Compound 162, 2-(Hydroxycarbamoyl)-N-[4-[[4-[[(4-methoxyphenyl)sulfonylamino]methyl]triazol-1-yl]methyl]phenyl]-4-methyl-pentanamide] | 1.9 ± 0.1 |  |  | Final survival percentage of larvae ([2]; 12.5 μM): 58%; Final survival percentage of larvae ([2]; 25 μM): 64%; Final survival percentage of larvae ([2]; 50 μM): 84%; Improvement in survival of larvae compared to negative control ([2]; 50 μM, vs 3 CFU/Larva without treatment): 40%
4 | CC(C)CC(C(=O)NO)C(=O)Nc1ccc(Cn2cc(CNS(=O)(=O)c3ccc(Cl)c(Cl)c3)nn2)cc1 (stereo not drawn) [Compound 165, N-[4-[[4-[[(3,4-Dichlorophenyl)sulfonylamino]methyl]triazol-1-yl]methyl]phenyl]-2-(hydroxycarbamoyl)-4-methyl-pentanamide] | 1.6 ± 0.1 | 117 (≈ 66.6 µg/mL) | 10.7 ± 0.6 | 
5 | CC(C)CC(C(=O)NO)C(=O)Nc1ccc(Cn2cc(CNS(=O)(=O)CC34CCC(CC3=O)C4(C)C)nn2)cc1 (stereo not drawn) [Hit L2, N-[4-[[4-[[(7,7-Dimethyl-2-oxo-norbornan-1-yl)methylsulfonylamino]methyl]triazol-1-yl]methyl]phenyl]-2-(hydroxycarbamoyl)-4-methyl-pentanamide] | 5.3 ± 0.1 |  |  | 
6 | CC(C)CC(C(=O)NO)C(=O)Nc1ccc(Cn2cc(CNS(=O)(=O)c3ccc(-c4ccccc4)cc3)nn2)cc1 (stereo not drawn) [Hit L3, 2-(Hydroxycarbamoyl)-4-methyl-N-[4-[[4-[[(4-phenylphenyl)sulfonylamino]methyl]triazol-1-yl]methyl]phenyl]pentanamide] | 13.9 ± 0.3 |  |  | 
7 | CC(C)CC(C(=O)NO)C(=O)Nc1ccc(Cn2cc(C3CSCN3C(=O)c3ccc(F)cc3)nn2)cc1 (stereo not drawn) [Hit L4, N-[4-[[4-[3-(4-Fluorobenzoyl)thiazolidin-4-yl]triazol-1-yl]methyl]phenyl]-2-(hydroxycarbamoyl)-4-methyl-pentanamide] | 6.6 ± 0.2 |  |  | 
8 | CC(=O)Nc1ccccc1OCc1cn(Cc2ccc(NC(=O)C(CC(C)C)C(=O)NO)cc2)nn1 (stereo not drawn) [Hit L5, N-[4-[[4-[(2-Acetamidophenoxy)methyl]triazol-1-yl]methyl]phenyl]-2-(hydroxycarbamoyl)-4-methyl-pentanamide] | 13.8 ± 0.3 |  |  | 

Source: patent US20250170104A1, “INHIBITORS OF PSEUDOMONAS AERUGINOSA VIRULENCE FACTOR Lasß” (priority 2022, published 2025)
